Results from PMC11883000, “Structure-function relationship of ASH1L and histone H3K36 and H3K4 methylation” (Nature Communications, 2025).
Like-named read-outs stand apart in the source and are kept apart here.

Legend:
ASH1LPHD [1] = molecular target: T1, ASH1LPHD (Homo sapiens, UniProt Q9NR48); assay: Tryptophan fluorescence binding, WT ASH1LPHD
T1 construct: ASH1LPHD (aa 2579-2629); GST (N, cleaved yes); made in house; host or cells: E. coli BL21 or Rosetta2 (DE3) pLysS
Excerpt: Human ASH1L constructs ASH1LPHD (aa 2579-2629), ASH1LBD (aa 2430-2564) and ASH1LPHD-BAH (aa 2579- 2794 and 2579-2834), ASH1LBD-PHD (aa 2430-2629) were cloned into pDEST15 vector with a TEV or Precission cleavage site. ASH1LBD-PHD-BAH (aa 2436-2833), ASH1LSET-BD-PHD (aa 2074-2629) and ASH1LSET-BD-PHD-BAH (aa 2069-2834) were in pGEX6P-1 and pMOCR vectors. Mutants of Ash1LPHD and Ash1LBD were generated following Quikchange mutagenesis protocols. Each construct was expressed in BL21 or Rosetta2 (DE3) pLysS cells in LB or minimal media supplemented with ^15NH4Cl (and ZnCl2 for PHD finger-containing constructs). Cultures were induced with 0.5 mM IPTG and grown for 18 h at 16 °C. After harvesting, the GST-tagged proteins were purified using glutathione agarose (Thermo Scientific) in 20 mM Tris pH 7.5, 150-500 mM NaCl, 5 mM MgCl2 and 2 mM DTT. For experiments requiring GST-tagged constructs, the proteins were eluted in a buffer containing 20 mM Tris pH 7.5, 150-500 mM NaCl, 5 mM MgCl2, 50 mM reduced glutathione and 2 mM DTT. For crystallography and biochemical assays, the GST tag was cleaved overnight at 4 °C with TEV or PreScission protease, and proteins were further purified by size exclusion chromatography (SEC). Protein fractions were checked for purity by SDS-PAGE and concentrated in a concentrator (Millipore).
(§1) Fluorescence spectra were collected at 25 °C on a Fluoromax-3 and Fluoromax-4 plus C spectrofluorometers (HORIBA). […] Emission spectra were recorded between 320 and 360 nm with a 0.5 nm step size and a 0.5 s integration time. The Kd values were determined using a nonlinear least-squares analysis and the equation:3 ΔI=ΔImax((L+P+Kd)−L+P+Kd^2−4[P][L])/2[P] where [L] is concentration of the peptide, [P] is concentration of the protein, ΔI is the observed change of signal intensity, and ΔImax is the difference in signal intensity of the free and bound states of the protein. The Kd values were averaged over three independent experiments with error calculated as the standard deviation between the runs.

ASH1LPHD-BAH = molecular target: T2, ASH1LPHD-BAH (Homo sapiens, UniProt Q9NR48); assay: Tryptophan fluorescence binding, ASH1LPHD-BAH; conditions: 25 °C, pH 7.5, mean ± S.D., three independent experiments
T2 construct: ASH1LPHD-BAH (aa 2579- 2794 and 2579-2834); GST (N, cleaved yes); made in house; host or cells: E. coli BL21 or Rosetta2 (DE3) pLysS
Excerpt: (§2) Human ASH1L constructs ASH1LPHD (aa 2579-2629), ASH1LBD (aa 2430-2564) and ASH1LPHD-BAH (aa 2579- 2794 and 2579-2834), ASH1LBD-PHD (aa 2430-2629) were cloned into pDEST15 vector with a TEV or Precission cleavage site. ASH1LBD-PHD-BAH (aa 2436-2833), ASH1LSET-BD-PHD (aa 2074-2629) and ASH1LSET-BD-PHD-BAH (aa 2069-2834) were in pGEX6P-1 and pMOCR vectors. Mutants of Ash1LPHD and Ash1LBD were generated following Quikchange mutagenesis protocols. Each construct was expressed in BL21 or Rosetta2 (DE3) pLysS cells in LB or minimal media supplemented with ^15NH4Cl (and ZnCl2 for PHD finger-containing constructs). Cultures were induced with 0.5 mM IPTG and grown for 18 h at 16 °C. […]
as §1

ASH1LPHD D2595A = molecular target: T3, ASH1LPHD D2595A (Homo sapiens, UniProt Q9NR48, D2595A); assay: Tryptophan fluorescence binding, ASH1LPHD D2595A; conditions: 25 °C, pH 7.5, mean ± S.D., three independent experiments
T3 construct: ASH1LPHD (aa 2579-2629); GST (N, cleaved yes); made in house; host or cells: E. coli BL21 or Rosetta2 (DE3) pLysS
Excerpt: as §2, §1

ASH1LPHD D2584A = molecular target: T4, ASH1LPHD D2584A (Homo sapiens, UniProt Q9NR48, D2584A); assay: Tryptophan fluorescence binding, ASH1LPHD D2584A; conditions: 25 °C, pH 7.5, mean ± S.D., three independent experiments
T4 construct: ASH1LPHD (aa 2579-2629); GST (N, cleaved yes); made in house; host or cells: E. coli BL21 or Rosetta2 (DE3) pLysS
Excerpt: as §2, §1

ASH1LPHD Q2601K = molecular target: T5, ASH1LPHD Q2601K (Homo sapiens, UniProt Q9NR48, Q2601K); assay: Tryptophan fluorescence binding, ASH1LPHD Q2601K; conditions: 25 °C, pH 7.5, mean ± S.D., three independent experiments
T5 construct: ASH1LPHD (aa 2579-2629); GST (N, cleaved yes); made in house; host or cells: E. coli BL21 or Rosetta2 (DE3) pLysS
Excerpt: as §2, §1

H3K4me3-NCP [2] = assay type: binding; conditions: EMSA; 0.025 µM nucleosome, increasing protein, pH 7.5, on ice 5 min
H3K4me3-NCP [3] = assay: Liquid HMT assay of GST-ASH1LSET-BD-PHD on H3K4me3-nucleosomes; assay type: biochemical; conditions: D2595K mutant compared to WT ASH1LSET-BD-PHD on H3K4me3-NCP; presence or absence of MRG15; 3H-SAM, 60 min at 30 °C, pH 8
Description: Fig. 6 Binding of ASH1LPHD to H3K4me3 inhibits enzymatic activity of ASH1L. a Overlay of ^1H,^15N HSQC spectra of ASH1LBD in the absence (black) or presence of the indicated molar ratios of ASH1LSET. b Overlay of ^1H,^15N HSQC spectra of ASH1LPHD in the absence (black) or presence (blue) of ASH1LSET. c Liquid histone methyltransferase (HMT) assays of GST-ASH1LSET-BD-PHD-BAH on recombinant nucleosomes carrying H3K4me3 or unmodified NCP. GST-ASH1LSET-BD-PHD-BAH was pre-incubated with substrate and MRG15 (or BSA) prior addition of ^3H S-adenosyl methionine. GST, control. […] Live cells were counted over a 6-day time course. […]
Recombinant ASH1L (WT and mutant) constructs, tagged at the N-terminus with GST and at the C-terminus with 6XHis, were generated and purified using Sepharose beads and Ni-NTA beads. […] Methyltransferase activity of the proteins was measured with 0.5 μCi of ^3H labeled S-adenosyl methionine (18 Ci/mmol; PerkinElmer Life Sciences). […] The reactions were captured on P81 filter paper, the free ^3H-labeled SAM was washed away, and the paper was analyzed by Liquid Scintillation.

ASH1LBD = assay: NMR titration (1H,15N HSQC), ASH1LBD; assay type: binding, Human; conditions: unlabeled ASH1LSET titrated into 15N-labeled ASH1LBD
Excerpt: as §2, with “°C. After harvesting, the GST-tagged proteins were purified using glutathione agarose (Thermo Scientific) in 20 mM Tris pH 7.5, 150-500 mM NaCl, 5 mM MgCl2 and 2 mM DTT.” for “°C.”
(§3) NMR experiments were performed at 298 K on Varian 600 MHz and 900 MHZ spectrometers equipped with a cryogenic probe. Chemical shift perturbation experiments were carried out using 0.1–0.2 mM uniformly ^15N-labeled wild type or mutant proteins in 25 mM Tris pH 7.5 buffer, supplemented with 150 mM NaCl, 5 mM DTT and 5-7% D2O. ^1H,^15N heteronuclear single quantum coherence (HSQC) or transverse relaxation optimized spectroscopy (TROSY) spectra were recorded in the absence and presence of increasing concentrations of ligands. […]

ASH1LPHD [4] = molecular target: T1, ASH1LPHD; assay: NMR titration (1H,15N HSQC), WT ASH1LPHD; assay type: binding; conditions: unlabeled ASH1LSET titrated into 15N-labeled ASH1LPHD
Excerpt: as §2, with “°C. After harvesting, the GST-tagged proteins were purified using glutathione agarose (Thermo Scientific) in 20 mM Tris pH 7.5, 150-500 mM NaCl, 5 mM MgCl2 and 2 mM DTT.” for “°C.”
as §3

[5] = WT, summary of tryptophan fluorescence and MST, di- and trimethylated peptides, read-out: binding affinity

With `C[C@H](N)C(=O)N[C@@H](CCCNC(=N)N)C(=O)N[C@H](C(=O)N[C@@H](CCCCN(C)C)C(=O)N[C@@H](CCC(N)=O)C(=O)N[C@H](C(=O)N[C@@H](C)C(=O)N[C@@H](CCCNC(=N)N)C(=O)N[C@@H](CCCCN)C(=O)N[C@@H](CO)C(=O)N[C@H](C(=O)NCC(=O)O)[C@@H](C)O)[C@@H](C)O)[C@@H](C)O` [H3K4me2] the Kd (ASH1LPHD [1]; [5]) was 1 to 2 µM and the Kd (ASH1LPHD [1]; tryptophan fluorescence, H3 aa 1-12, excitation 295 nm, emission 320-360 nm, 25 °C, 0.5–2 μM protein, 20–25 mM Tris pH 7.5, 150 mM NaCl, 3 mM DTT, mean ± S.D., three independent experiments, read-out: Kd) was 1 ± 0.4 µM.
With `C[C@H](N)C(=O)N[C@@H](CCCNC(=N)N)C(=O)N[C@H](C(=O)N[C@@H](CCCC[N+](C)(C)C)C(=O)N[C@@H](CCC(N)=O)C(=O)N[C@H](C(=O)N[C@@H](C)C(=O)N[C@@H](CCCNC(=N)N)C(=O)N[C@@H](CCCCN)C(=O)N[C@@H](CO)C(=O)N[C@H](C(=O)NCC(=O)O)[C@@H](C)O)[C@@H](C)O)[C@@H](C)O` [H3K4me3] the Kd (ASH1LPHD-BAH) was 1 ± 0.4 µM, the Kd (ASH1LPHD D2595A) was 5 to 7 µM and the Kd (ASH1LPHD D2584A) was 5 to 7 µM. It also gave a Kd (ASH1LPHD [1]; [5]) of 1 to 2 µM and a Kd (ASH1LPHD Q2601K) of 1 ± 0.3 µM.
With “ASH1LPHD: Human ASH1L PHD finger (aa 2579-2629) (HEKDDDVIRCICGLYKDEGLMIQCDKCMVWQHCDCMGVNSDVEHYLCEQCD; left off: GST, end not stated, cleaved)” the “binding to H3K4me3-NCP” value (H3K4me3-NCP [2]) was “incapable”.
“ASH1LSET-BD-PHD D2595K mutant: D2595K mutant of ASH1LSET-BD-PHD (aa 2074-2629)” was tested, and the methyltransferase activity (H3K4me3-NCP [3]) was “increase in the methyltransferase activity”.
“ASH1LSET: isolated unlabeled ASH1LSET domain” was tested, and the “interaction of ASH1LSET with ASH1LBD (CSPs)” value (ASH1LBD) was “direct contact with ASH1LBD” and the “interaction of ASH1LSET with ASH1LPHD (CSPs)” value (ASH1LPHD [4]) was “does not interact with ASH1LPHD”.
